Reference: the NIST ThermoML archive (doi:10.1021/acs.jced.8b01174)
± gives the expanded uncertainty stated by the source.

Assays:
[1] = wn = mass fraction of the nth substance listed; conditions: 97.7 kPa, Liquid, w2 = 0.874; for viscosity: Concentric cylinders viscometry; for mass density: Vibrating tube method
[2] = 97.7 kPa, Liquid; for viscosity: Concentric cylinders viscometry; for mass density: Vibrating tube method
[3] = molar heat capacity at constant pressure; conditions: 100 kPa, Liquid, DSC

C1CNCCN1 [piperazine] + CN(CCO)CCO
[1]
Conditions | mass density [kg/m3] | viscosity [mPa·s]
293.15 K | 1036 ± 3 | 150.46 ± 4.3
303.15 K | 1029 ± 3 | 79.46 ± 2.3
313.15 K | 1021 ± 3 | 45.07 ± 1.3
323.15 K | 1014 ± 3 | 27.24 ± 0.81
333.15 K | 1006 ± 3 | 17.41 ± 0.54
343.15 K | 999 ± 3 | 11.68 ± 0.4
353.15 K | 991 ± 3 | 8.18 ± 0.27
363.15 K | 983 ± 3 | 5.93 ± 0.2

O [water]
Conditions | mass density, [2] [kg/m3] | molar heat capacity at constant pressure, [3] [J/K/mol] | viscosity, [2] [mPa·s]
293.15 K | 998 ± 2 | – | 1 ± 0.02
298.15 K | – | 74.8 ± 3.5 | –
303.15 K | 996 ± 2 | – | 0.8 ± 0.02
308.15 K | – | 74.78 ± 3.5 | –
313.15 K | 992 ± 2 | – | 0.65 ± 0.02
318.15 K | – | 74.93 ± 3.5 | –
323.15 K | 988 ± 2 | – | 0.55 ± 0.02
328.15 K | – | 75.02 ± 3.5 | –
333.15 K | 983 ± 2 | – | 0.47 ± 0.02
338.15 K | – | 75.07 ± 3.5 | –
343.15 K | 978 ± 2 | – | 0.4 ± 0.02
348.15 K | – | 75.21 ± 3.6 | –
353.15 K | 972 ± 2 | – | 0.35 ± 0.02
363.15 K | 965 ± 2 | – | 0.31 ± 0.02
